The text below walks through data of patent publication US20250195478A1, “DUAL INHIBITORS OF VISTA AND PD-1 PATHWAYS” (Aurigene Oncology Limited, priority 2016, published 2025).

One experiment concerns the target T1, Recombinant mouse PD-L1 (Mus musculus, UniProt Q9EP73).
T1 construct: Fc (Fc chimera); purchased R&D Systems 1019-B7-100
In words: Rescue of mouse splenocyte proliferation in the presence of recombinant PD-L1 (CFSE proliferation assay). Format: cell-based. Conditions: 100 nM compound; anti-CD3/CD28 stimulated mouse splenocytes + PD-L1; 72 h; stimulated splenocytes = 100%; read-out: PDL1 (rescue of proliferation @ 100 nM). The method, then:
Example 1: Rescue of Mouse Splenocyte Proliferation in the Presence of Recombinant PD-L1/PD-L2
Recombinant mouse PD-L1 (rm-PDL-1, cat no: 1019-B7-100; R&D Systems) were used as the source of PD-L1.
Mouse splenocytes harvested from 6-8 weeks old C57 BL6 mice; RPMI 1640 (GIBCO, Cat #11875); DMEM with high glucose (GIBCO, Cat #D6429); Fetal Bovine Serum [Hyclone, Cat #SH30071.03]; Penicillin (10000unit/mL)-Streptomycin (10,000 μg/mL) Liquid (GIBCO, Cat #15140-122); MEM Sodium Pyruvate solution 100 mM (100×), Liquid (GIBCO, Cat #11360); Nonessential amino acid (GIBCO, Cat #11140); L-Glutamine (GIBCO, Cat #25030); Anti-CD3 antibody (eBiosciences-16-0032); Anti-CD28 antibody (eBiosciences-16-0281); ACK lysis buffer (1mL) (GIBCO, Cat #-A10492); Histopaque (density-1.083 gm/mL) (SIGMA 10831); Trypan blue solution (SIGMA-T8154); 2 mL Norm Ject Luer Lock syringe-(Sigma 2014-12); 40 μm nylon cell strainer (BD FALCON 35230); Hemacytometer (Bright line-SIGMA Z359629); FACS Buffer (PBS/0.1% BSA): Phosphate Buffered Saline (PBS) pH 7.2 (HiMedia TS1006) with 0.1% Bovine Serum Albumin (BSA) (SIGMA A7050) and sodium azide (SIGMA 08591); 5 mM stock solution of CFSE: CFSE stock solution was prepared by diluting lyophilized CFSE with 180 μL of Dimethyl sulfoxide (DMSO C2H6SO, SIGMA-D-5879) and aliquoted in to tubes for further use. Working concentrations were titrated from 10 μM to 1 μM. (eBioscience-650850-85); 0.05% Trypsin and 0.02% EDTA (SIGMA 59417C); 96-well format ELISA plates (Corning CLS3390); BD FACS caliber (E6016);
Recombinant mouse B7-H1/PDL1 Fc Chimera, (rm-PD-L1 cat no: 1019-B7-100).
Splenocytes harvested in a 50 mL falcon tube by mashing mouse spleen in a 40 μm cell strainer were further treated with 1 mL ACK lysis buffer for 5 min at room temperature.
After washing with 9 mL of RPMI complete media, cells were re-suspended in 3 mL of 1×PBS in a 15 mL tube. 3 mL of Histopaque was added carefully to the bottom of the tube without disturbing overlaying splenocyte suspension. After centrifuging at 800×g for 20 min at room temperature, the opaque layer of splenocytes was collected carefully without disturbing/mixing the layers. Splenocytes were washed twice with cold 1×PBS followed by total cell counting using Trypan Blue exclusion method and used further for cell based assays.
Splenocytes were cultured in RPMI complete media (RPMI +10% fetal bovine serum+1 mM sodium pyruvate+10,000units/mL penicillin and 10,000 μg/mL streptomycin) and maintained in a CO2 incubator with 5% CO2 at 37° C.
CFSE is a dye that passively diffuses into cells and binds to intracellular proteins. 1×10^6 cells/mL of harvested splenocytes were treated with 5 μM of CFSE in pre-warmed 1×PBS/0.1% BSA solution for 10 min at 37° C. Excess CFSE was quenched using 5 volumes of ice-cold culture media to the cells and incubated on ice for 5 min. CFSE labelled splenocytes were further given three washes with ice cold complete RPMI media. CFSE labelled 1×10^5 splenocytes added to wells containing either MDA-MB231 cells (1×10^5 cells cultured in high glucose DMEM medium) or recombinant […] PDL-1 (100 ng/mL) and test compounds. Splenocytes were stimulated with anti-mouse CD3 and anti-mouse CD28 antibody (lug/mL each), and the culture was further incubated for 72 h at 37° C. with 5% CO2. Cells were harvested and washed thrice with ice cold FACS buffer and % proliferation was analysed by flow cytometry with 488 nm excitation and 521 nm emission filters.
Percent splenocyte proliferation was analysed using cell quest FACS program and percent rescue of splenocyte proliferation by compound was estimated after deduction of % background proliferation value and normalising to % stimulated splenocyte proliferation (positive control) as 100%.
Stimulated splenocytes: Splenocytes+anti-CD3/CD28 stimulation
Background proliferation: Splenocytes+anti-CD3/CD28+PD-L1
Compound proliferation: Splenocytes+anti-CD3/CD28+PD-L1+Compound […]

For a further experiment, the target named is T2, recombinant human VISTA (Homo sapiens, UniProt Q9H7M9).
T2 construct: Fc (Fc chimera); purchased R&D Systems 7126-B7
In words: Human PBMC IFN-γ release assay in the presence of recombinant human VISTA. Format: cell-based. Conditions: 100 nM compound, plate-coated VISTA + anti-CD3, anti-CD28, 72 h, ELISA. On the procedure: Example 2: Rescue of Mouse Splenocyte Proliferation in the Presence of Recombinant VISTA
Vehicle: Milli Q water; RPMI 1640 (GIBCO, Cat #11875); Fetal Bovine Serum [Hyclone, Cat #SH30071.03]; Penicilin (10000 unit/ml)-Streptomycin (10,000 μg/ml) liquid (GIBCO, Cat #15140-122); MEM Sodium Pyruvate solution 100 mM (100×), Liquid (GIBCO, Cat #11360); Nonessential amino acid (GIBCO, Cat #11140); L-Glutamine (GIBCO, Cat #25030); Recombinant human VISTA (rhGi24 VISTA/B7-H5 Fc chimera (R&D systems, cat no: 7126-B7); Anti-h/m Gi24/VISTA/B7-H5 purified mouse monoclonal IgG2B (R&D systems, cat no: MAB7126); Mouse IgG2B isotype control (R&D Systems cat no: MAB 004); Anti human-CD3 antibody (eBiosciences-16-0039); Anti human-CD28 antibody (eBiosciences-16-0289); Histopaque (density-1.077 gm/ml) (SIGMA 1077); Trypan Blue solution (SIGMA-T8154); Hemacytometer (Bright line-SIGMA Z359629); FACS Buffer containing Phosphate Buffered Saline (PBS) pH 7.2; (HiMedia TS1006) with 0.1% Bovine Serum Albumin (BSA) (SIGMA A7050) and sodium azide (SIGMA 08591); 96-well format ELISA plates (Corning 3599); 96-well format ELISA plates (Corning 3361); BD FACS caliber (E6016); Centrifuge (Eppendorf 5810 R); Human IFN-γ Duo set ELISA kit (R&D Systems; cat no: DY-285).
96-well cell culture plates were pre-coated with recombinant human VISTA (2.5 μg/ml) and anti-human CD3 (2.5 μg/ml), and stored at 4° C. overnight. Anti-human VISTA and isotype control antibodies were either coated along with the VISTA or incubated for 30 min next day before addition of cells. On the next day, plates were washed with 1×PBS and then incubated with test compounds for 30 min. Isolated PBMC (0.1×10^6 cells/well) and anti-human CD28 antibodies (lug/ml) were added to the wells. The culture was further incubated for 72 h at 37° C. with 5% CO2. After 72 h of incubation the cell culture supernatants were collected after brief centrifugation at 200 g×5 min at 4° C. and processed for human IFN-γ measurement by ELISA following manufacturer's protocol (R&D Systems; DY-285).
In brief, 96-well ELISA plates were coated with 100 μl/well of capture antibody in coating buffer and incubated overnight at 4° C. Plates were washed five times with wash buffer and further blocked with 200 μl of 1× assay diluents for 1 hr at RT. Following wash step, 100 μl of cell culture supernatants were added to wells and further incubated for 2 hr at RT. Appropriate standards were also included. After wash step, plate was incubated for one hour with 100 μl/well of detection antibody. The wash step was repeated and the plate was incubated for 30 min with 100 μl/well of Avidin-HRP. The plate was washed four times with wash buffer and subsequently incubated for 15 min with 100 μl/well of substrate solution. 50 μl of stop solution was added to each well and the plate was read at 450 nm using Gen5 ver 2.05. Delta OD values were used for calculating the concentrations. The absorbance values were plotted against the standards and the concentration of IFN-γ was determined using GraphPad Prism software. Each experimental condition was carried out in triplicates.
The percent rescue of IFN-γ release of the selected compounds of present invention are set forth below wherein “A” refers to compounds having more than 70% rescue of IFN-γ release, “B” refers to compounds having rescue of IFN-γ release ranges from 50% to 69.9% and “C” refers to compounds having less than 50% rescue of IFN-γ release.
For orientation: An ELISA detects its analyte on a solid surface through an enzyme-linked reagent.

T1 sequence (Q9EP73 19-238 limits assumed): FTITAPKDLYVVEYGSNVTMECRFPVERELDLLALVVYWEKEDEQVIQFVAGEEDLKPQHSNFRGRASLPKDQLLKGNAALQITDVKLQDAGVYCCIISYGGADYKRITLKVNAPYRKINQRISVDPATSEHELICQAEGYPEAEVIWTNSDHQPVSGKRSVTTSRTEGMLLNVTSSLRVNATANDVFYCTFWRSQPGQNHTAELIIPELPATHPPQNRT
T2 sequence (Q9H7M9 with tags, fused parts or gaps limits assumed): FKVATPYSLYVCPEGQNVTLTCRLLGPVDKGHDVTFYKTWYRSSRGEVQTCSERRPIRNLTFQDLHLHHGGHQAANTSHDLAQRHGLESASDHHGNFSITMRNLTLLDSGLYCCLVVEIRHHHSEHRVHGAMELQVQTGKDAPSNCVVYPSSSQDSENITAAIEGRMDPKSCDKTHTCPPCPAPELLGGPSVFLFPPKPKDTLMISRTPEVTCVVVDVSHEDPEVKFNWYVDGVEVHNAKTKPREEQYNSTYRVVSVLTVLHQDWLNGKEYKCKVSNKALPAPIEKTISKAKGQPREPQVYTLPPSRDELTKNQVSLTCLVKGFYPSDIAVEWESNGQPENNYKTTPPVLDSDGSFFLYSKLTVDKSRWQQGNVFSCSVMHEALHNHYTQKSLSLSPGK

Take `CC(O)[C@H](NC(=O)N[C@@H](CC(N)=O)c1nc([C@@H](N)CO)no1)C(=O)O` (some centres unmarked) [Compound 1]: the activation at 0.1 µM at Recombinant mouse PD-L1 amounted to 97%. Also, on recombinant human VISTA, the “VISTA (rescue of IFN γ release @ 100 nM)” value was “A (more than 70% rescue of IFN-γ release)”.

Regarding `CC(O)[C@H](NC(=O)N[C@@H](Cc1cc2ccccc2[nH]1)c1nc([C@@H](N)CO)no1)C(=O)O` (some centres unmarked) [Compound 8], on Recombinant mouse PD-L1, the activation at 0.1 µM was 60%. Also, the “VISTA (rescue of IFN γ release @ 100 nM)” value on recombinant human VISTA is reported as “B (rescue of IFN-γ release ranges from 50% to 69.9%)”.

Turning to `CC(O)[C@@H](NC(=O)N[C@@H](CC(N)=O)c1nc([C@H](N)CO)no1)C(=O)O` (some centres unmarked) [Compound 23], the activation at 0.1 µM at Recombinant mouse PD-L1 was 72%. The “VISTA (rescue of IFN γ release @ 100 nM)” value on recombinant human VISTA was “A (more than 70% rescue of IFN-γ release)”.

As to `CN[C@@H](CO)c1noc([C@H](CC(N)=O)NC(=O)N[C@H](C(=O)O)C(C)O)n1` (some centres unmarked) [Compound 6], on Recombinant mouse PD-L1, the activation at 0.1 µM came to 63%. Further, the “VISTA (rescue of IFN γ release @ 100 nM)” value at recombinant human VISTA was “C (less than 50% rescue of IFN-γ release)”.

For the compound `CC(O)[C@@H](NC(=O)N[C@H](CC(N)=O)c1nc([C@H](N)CO)no1)C(=O)O` (some centres unmarked) [Compound 22], on Recombinant mouse PD-L1, the activation at 0.1 µM was 83%. The “VISTA (rescue of IFN γ release @ 100 nM)” value on recombinant human VISTA was “A (more than 70% rescue of IFN-γ release)”.

In the case of `CC(O)[C@H](NC(=O)N[C@@H](CC(N)=O)c1nc([C@H](N)CO)no1)C(=O)O` (some centres unmarked) [Compound 21], the activation at 0.1 µM at Recombinant mouse PD-L1 is 64%. Further, the “VISTA (rescue of IFN γ release @ 100 nM)” value at recombinant human VISTA was “A (more than 70% rescue of IFN-γ release)”.

As for `CC(O)[C@H](NC(=O)N[C@@H](CC(N)=O)c1nc([C@@H](N)C(C)O)no1)C(=O)O` (some centres unmarked) [Compound 2], the activation at 0.1 µM on Recombinant mouse PD-L1 amounted to 75%. On recombinant human VISTA, the “VISTA (rescue of IFN γ release @ 100 nM)” value is given as “A (more than 70% rescue of IFN-γ release)”.
